Experimental data published in article PMC9621195 (Journal for Immunotherapy of Cancer, 2022).

Biological target: cathepsin B (Homo sapiens, UniProt P07858)
Experiment: microscale thermophoresis with CTSB-WT-EGFP in HCT-116 cell lysate
Format: binding

`CC(C)(O)[C@@H]1CC[C@](C)([C@H]2[C@@H](O)C[C@@]3(C)[C@@H]4C[C@H](O)[C@H]5C(C)(C)[C@@H](O)CC[C@@]56C[C@@]46CC[C@]23C)O1` [CAG, Cycloastragenol] gave a Kd of 26.6 nM.
